This note sets out measurements from the NIST ThermoML archive (doi:10.1021/acs.jced.8b00298).

Numbers after ± are expanded uncertainties.

The conditions of the data set: Liquid.

Consider `C=C(C)C(=O)OC` [methyl methacrylate], for which, for the setting “Capillary flow”, the Critical pressure is recorded as 3750 ± 100 kPa and the Critical temperature was determined as 557.9 ± 1.6 K.
For `C=CC(=O)OC` [methyl propenoate], for the setting “Capillary flow”, the Critical pressure was determined as 3990 ± 140 kPa and the Critical temperature came out at 532.7 ± 2.6 K.
In the same order, the values of `C1CCNCC1` [piperidine] are 4560 ± 140 kPa and 594.4 ± 3 K.
As for `c1cc[nH]c1` [pyrrole], where the note is “Capillary flow”, the Critical pressure came out at 6300 ± 170 kPa and the Critical temperature was found to be 633.3 ± 3 K.
Consider `C1CCSC1` [tetrahydrothiophene], for which, under “Capillary flow”, the Critical pressure was 5430 ± 300 kPa and the Critical temperature was determined as 634.6 ± 6 K.
For the molecule `C[C@H]1CC[C@H](C)CC1` [trans-1,4-dimethylcyclohexane], for the setting “Visual”, the Critical molar volume amounted to 0.00042 ± 2e-05 m3/mol and the Critical pressure was determined as 3060 ± 30 kPa. Also, for the setting “Visual observation in an unstirred cell”, the Critical temperature was determined as 585.84 ± 0.24 K.
